Measurements taken from paper PMC6321055, “Synthesis of Novel ent-Kaurane-Type Diterpenoid Derivatives Effective for Highly Aggressive Tumor Cells” (Molecules, 2018).

Tests used:
[1] = system: NSCLC-H292; assay: MTT cytotoxicity assay, NSCLC-H292; details: Homo sapiens, 24 h, read-out: In vitro cytotoxic activity IC50, NSCLC-H292
Description: (§1) Cells were purchased from the Wuxi Innovatbio Medicine Technology Co. LTD (Wuxi, China) and were maintained at 37 °C under the atmosphere of 5% CO2. The cells of human non-small lung cancer (H292) and colon cancer cell line (SNU-1040) cells were cultured in RPMI-medium and others (rat myoblasts and HepG2) were cultured in dulbecco′s modified eagle medium (DMEM). 10% fetal bovine serum (Tianhang Biotechnology Co., Ltd., Zhejiang, China) and 1% antibiotics (100 U/mL penicillin and 100 mg/mL streptomycin) was supplemented. Cells are inoculated in 96-well plate and cultured for 24 h. After attached to the culture bottle wall cells were divided cells into three groups, (1) control group; (2) positive control group; (3) experiment group. […] After 24 h, 10% MTT was added and cells were culture for 3.5 h. Then the culture medium was discard and 150 µL DMSO was added. Eventually, after incubation for 10 min by shaking in the dark at room temperature, the absorbance was detected at 490 nm using a microplate reader, and the difference was analyzed by prism 7 software.

[2] = in vitro; details: rat
Description: as §1

[3] = system: HepG2; assay: MTT cytotoxicity assay, HepG2; details: for IC50: Homo sapiens, HepG2, 24 h, read-out: In vitro cytotoxic activity IC50, HepG2; for SI (selective index, IC50 of normal cells/IC50 of tumor cells): IC50 L6 / IC50 HepG2
Description: as §1

[4] = system: SNU-1040; assay: MTT cytotoxicity assay, SNU-1040; details: Homo sapiens, 24 h, read-out: In vitro cytotoxic activity IC50, SNU-1040
Description: as §1

[5] = MTT cytotoxicity assay, L6 normal cells; details: rat, L6 rat myotube cells (normal cells)
Description: as §1

| Structure (SMILES) | IC50 [1] [µM] | IC50 at 24 h [2] [µM] | melting point [°C] | IC50 [3] [µM] | IC50 [4] [µM] | SI (selective index, IC50 of normal cells/IC50 of tumor cells) [3] | IC50 at 24 h [5] [µM] |
| --- | --- | --- | --- | --- | --- | --- | --- |
| C=C1C[C@]2(C(=O)OCC)C[C@H]1C(=O)C[C@@H]2C1CC(C)(C)C=CC1=O (some centres unmarked) [Compound 13] | 4.44 | > 10 | 112 to 114.6 | > 10 | 1.41 | – | – |
| C=C1C[C@]2(C(=O)OCC)C[C@H]1C(=O)C[C@H]2C1CC(C)(C)C=CC1=O (some centres unmarked) [Compound 14] | 2.95 | > 10 | 103.2 to 105.8 | > 10 | 1.72 | – | – |
| C=C1C(O)[C@]2(C(=O)OCC)C[C@H]1C(=O)C[C@@H]2C1CC(C)(C)C=CC1=O (some centres unmarked) [Compound 15] | 1.99 | > 10 | – | 1.81 | 3.13 | – | – |
| C=C1C(=O)[C@]2(C(=O)OCC)C[C@H]1C(=O)C[C@@H]2C1CC(C)(C)C=CC1=O (some centres unmarked) [Compound 16] | 1.69 | > 10 | – | 0.33 | 2.44 | 161.06 | – |
| C=C1C(O)[C@]2(C(=O)OCC)C[C@H]1C(=O)C[C@H]2C1CC(C)(C)C=CC1=O (some centres unmarked) [Compound 17] | 0.99 | > 10 | – | 1.58 | 2.82 | 47.80 | – |
| C=C1C(=O)[C@]2(C(=O)OCC)C[C@H]1C(=O)C[C@H]2C1CC(C)(C)C=CC1=O (some centres unmarked) [Compound 18] | 1.35 | > 10 | – | 0.56 | 3.01 | – | – |
| C=C1C(=O)[C@]23C[C@H]1CC[C@H]2[C@@]12CO[C@]3(O)[C@@H](O)[C@@H]1C(C)(C)C=CC2=O [Eriocalyxin B, reference compound] | 7.11 | – | – | 2.12 | 1.54 | – | > 10 |
